This passage reports Kd results from patent publication US10913710B2, “Benzene disulfonamide for the treatment of cancer” (priority 2017, dated 2021).

The term Kd denotes a measure of binding affinity in units of concentration.

In the assay the target is PDEδ (Homo sapiens (Human), UniProt O43924). Kind of assay: Fluorescence polarization competition binding assay: displacement titration of labeled Atorvastatin probe for KD. The method, then:
Example D.2: Displacement Titrations of Labeled Atorvastatin-Probe for the Determination of KD Values
Displacement Titrations of Labeled Atorvastatin-Probe for the Determination of KD Values:
The purification was followed by size exclusion gel filtration on a Superdex 75 S26/60 column using buffer A (25 mM Tris-HCl, pH 7.5, 150 mM NaCl and 3 mM DTE).

Setting [1] is: fluorescence polarization assay, activity classes, read-out: KD.

Read-outs that look alike come from different tables or passages of the source.

With `O=S(=O)(c1ccc(S(=O)(=O)N(Cc2ccccn2)C2CCCO2)cc1)N(Cc1ccccn1)C1CCCO1` (stereo not shown) [Compound 1], under setting [1], the dissociation constant Kd lay within 100 to 1000 nM. In the case of `Nc1ccc(Br)c(CN(CC2CCNCC2)S(=O)(=O)c2ccc(S(=O)(=O)N(Cc3ccc(Cl)cc3)C3CCCC3)cc2)c1` [Compound 2, N1-(5-amino-2-bromobenzyl)-N4-(4-chlorobenzyl)-N4-cyclopentyl-N1-(piperidin-4-ylmethyl)benzene-1,4-disulfonamide], under setting [1], the Kd fell in the range of 100 to 1000 nM. The same measure, in the same setting: in the case of `CC(C)(C)OC(=O)N1CCC(CN(Cc2ccccc2)S(=O)(=O)c2ccc(S(=O)(=O)NC3CCCC3)cc2)CC1` [Compound 3] it was above 1000 nM; in that of `CC(C)(C)OC(=O)N1CCC(CN(Cc2ccccc2)S(=O)(=O)c2ccc(S(=O)(=O)N(Cc3cc(Br)cc(Br)c3)C3CCCC3)cc2)CC1` [Compound 4, tert-butyl 4-(((N-benzyl-4-(N-cyclopentyl-N-(3,5-dibromobenzyl)sulfamoyl)phenyl)sulfonamido)methyl)piperidine-1-carboxylate], 100 to 1000 nM. Same read-out and setting: to `CNc1ncc(Br)c(CN(CC2CCCCC2)S(=O)(=O)c2ccc(S(=O)(=O)N(Cc3ccc(Cl)cc3)C3CCCC3)cc2)n1` [Compound 5, N1-((5-bromo-2-(methylamino)pyrimidin-4-yl)methyl)-N4-(4-chlorobenzyl)-N1-(cyclohexylmethyl)-N4-cyclopentylbenzene-1,4-disulfonamide] belongs 30 to 100 nM; to `CN1CCC(CN(Cc2ccccc2)S(=O)(=O)c2ccc(S(=O)(=O)N(Cc3ccc(Cl)cc3)C3CCCC3)cc2)CC1` [Compound 6, N1-benzyl-N4-(4-chlorobenzyl)-N4-cyclopentyl-N1-((1-methylpiperidin-4-yl)methyl)benzene-1,4-disulfonamide], 1 to 30 nM; to `O=S(=O)(NCC1CCCCC1)c1ccc(S(=O)(=O)N(Cc2ccc(Cl)cc2)C2CCCC2)cc1` [Compound 8], 30 to 100 nM. On the same count and under the same terms, in the case of `O=S(=O)(c1ccc(S(=O)(=O)N(Cc2ccc(Cl)cc2)C2CCCC2)cc1)N(Cc1ccccc1)CC1CCCCC1` [Compound 9, N1-benzyl-N4-(4-chlorobenzyl)-N1-(cyclohexylmethyl)-N4-cyclopentylbenzene-1,4-disulfonamide] it was 1 to 30 nM; in that of `O=S(=O)(c1ccc(S(=O)(=O)N(Cc2ccc(Cl)cc2)C2CCCC2)cc1)N(CCN1CCNCC1)Cc1ccccc1` [Compound 10, N1-benzyl-N4-(4-chlorobenzyl)-N4-cyclopentyl-N1-(2-(piperazin-1-yl)ethyl)benzene-1,4-disulfonamide], 1 to 30 nM. Turning to `O=S(=O)(c1ccc(S(=O)(=O)N(Cc2ccc(Cl)cc2)C2CCCC2)cc1)N(Cc1cnccn1)CC1CCNCC1` [Compound 11, N1-(4-chlorobenzyl)-N1-cyclopentyl-N4-(piperidin-4-ylmethyl)-N4-(pyrazin-2-ylmethyl)benzene-1,4-disulfonamide], the Kd under setting [1] lay within 1 to 30 nM. Take `O=S(=O)(c1ccc(S(=O)(=O)N(Cc2cnc(Cl)cn2)C2CCCC2)cc1)N(Cc1ccccc1)CC1CCNCC1` [Compound 12, N1-benzyl-N4-((5-chloropyrazin-2-yl)methyl)-N4-cyclopentyl-N1-(piperidin-4-ylmethyl)benzene-1,4-disulfonamide]: the Kd under setting [1] fell in the range of 1 to 30 nM. On the same count and under the same terms, to `O=S(=O)(NCc1ccccc1)c1ccc(S(=O)(=O)N(Cc2ccc(Cl)cc2)C2CCCC2)cc1` [Compound 13] belongs 30 to 100 nM; to `O=S(=O)(NCc1ccc(O)cc1)c1ccc(S(=O)(=O)N(Cc2ccc(Cl)cc2)C2CCCC2)cc1` [Compound 14], 30 to 100 nM. `CC(C)(C)[Si](C)(C)Oc1ccc(CNS(=O)(=O)c2ccc(S(=O)(=O)N(Cc3ccc(Cl)cc3)C3CCCC3)cc2)cc1` [Compound 15]: the Kd lay in the range of 30 to 100 nM. Turning to `O=S(=O)(c1ccc(S(=O)(=O)N(Cc2cccc(Br)c2)C2CCCC2)cc1)N(Cc1ccccc1)CC1CCNCC1` [Compound 17, N1-benzyl-N4-(3-bromobenzyl)-N4-cyclopentyl-N1-(piperidin-4-ylmethyl)benzene-1,4-disulfonamide], under setting [1], the Kd is 30 to 100 nM. `O=S(=O)(c1ccc(S(=O)(=O)N(Cc2ccccc2)CC2CCNCC2)cc1)N(Cc1ccccc1)CC1CCNCC1` [Compound 18, N1,N4-dibenzyl-N1,N4-bis(piperidin-4-ylmethyl)benzene-1,4-disulfonamide]: under setting [1], the Kd lay in the range of 100 to 1000 nM. Same read-out and setting: in the case of `CNc1nccc(CN(CC2CCCCC2)S(=O)(=O)c2ccc(S(=O)(=O)N(Cc3ccc(Cl)cc3)C3CCCC3)cc2)n1` [Compound 20, N1-(4-chlorobenzyl)-N4-(cyclohexylmethyl)-N1-cyclopentyl-N4-((2-(methylamino)pyrimidin-4-yl)methyl)benzene-1,4-disulfonamide] it was 30 to 100 nM. As to `COC(=O)c1ccc(CN(CC2CCNCC2)S(=O)(=O)c2ccc(S(=O)(=O)N(Cc3ccc(Cl)cc3)C3CCCC3)cc2)cc1N` [Compound 23, methyl 2-amino-4-(((4-(N-(4-chlorobenzyl)-N-cyclopentylsulfamoyl)-N-(piperidin-4-ylmethyl)phenyl)sulfonamido)methyl)benzoate], the Kd under setting [1] lay within 1 to 30 nM. On the same count and under the same terms, to `CC(C)(C)c1cc(Br)cc(CN(C2CCCC2)S(=O)(=O)c2ccc(S(=O)(=O)N(Cc3ccccc3)CC3CCNCC3)cc2)c1` [Compound 24, N1-benzyl-N4-(3-bromo-5-(tert-butyl)benzyl)-N4-cyclopentyl-N1-(piperidin-4-ylmethyl)benzene-1,4-disulfonamide] belongs 30 to 100 nM. Regarding `O=S(=O)(c1ccc(S(=O)(=O)N(Cc2cc(Br)cc(C(F)(F)F)c2)C2CCCC2)cc1)N(Cc1ccccc1)CC1CCNCC1` [Compound 25, N1-benzyl-N4-(3-bromo-5-(trifluoromethyl)benzyl)-N4-cyclopentyl-N1-(piperidin-4-ylmethyl)benzene-1,4-disulfonamide], under setting [1], the dissociation constant (Kd) was 100 to 1000 nM. The same measure, in the same setting: to `O=S(=O)(c1ccc(S(=O)(=O)N(Cc2ccc(Cl)cc2)C2CCCC2)cc1)N(Cc1ccccc1)CC1CCCNC1` (stereo not shown) [Compound 26, N1-benzyl-N4-(4-chlorobenzyl)-N4-cyclopentyl-N1-(piperidin-3-ylmethyl)benzene-1,4-disulfonamide] belongs 1 to 30 nM; to `O=S(=O)(c1ccc(S(=O)(=O)N(Cc2ccc(Cl)cc2)C2CCCC2)cc1)N(Cc1cncnc1)CC1CCNCC1` [Compound 27, N1-(4-chlorobenzyl)-N1-cyclopentyl-N4-(piperidin-4-ylmethyl)-N4-(pyrimidin-5-ylmethyl)benzene-1,4-disulfonamide], 1 to 30 nM; to `CC(C)(C)[Si](C)(C)OCCN(CC1CCCCC1)S(=O)(=O)c1ccc(S(=O)(=O)N(Cc2ccc(Cl)cc2)C2CCCC2)cc1` [Compound 28], 100 to 1000 nM. Same read-out and setting: in the case of `CC(C)(C)[Si](C)(C)OCCCN(CC1CCCCC1)S(=O)(=O)c1ccc(S(=O)(=O)N(Cc2ccc(Cl)cc2)C2CCCC2)cc1` [Compound 29] it was 100 to 1000 nM. The same measure, in the same setting: to `CC(C)(C)[Si](C)(C)OCCCCN(CC1CCCCC1)S(=O)(=O)c1ccc(S(=O)(=O)N(Cc2ccc(Cl)cc2)C2CCCC2)cc1` [Compound 30] belongs 100 to 1000 nM; to `O=S(=O)(c1ccc(S(=O)(=O)N(Cc2ccc(Cl)cc2)C2CCCC2)cc1)N(CCO)CC1CCCCC1` [Compound 31], 30 to 100 nM.

Take `O=S(=O)(c1ccc(S(=O)(=O)N(Cc2ccc(Cl)cc2)C2CCCC2)cc1)N(CCCO)CC1CCCCC1` [Compound 32]: the Kd under setting [1] is 30 to 100 nM. Same read-out and setting: to `O=S(=O)(c1ccc(S(=O)(=O)N(Cc2ccc(Cl)cc2)C2CCCC2)cc1)N(CCCCO)CC1CCCCC1` [Compound 33] belongs 100 to 1000 nM.
